Measured values published in patent US20120184006A1, “Reductase Enzymes” (UTAH STATE UNIVERSITY, priority 2011, published 2012).

Tests used:
[1] = system: FACoAR from M. aquaeolei VT8; experiment: Initial activity assay, products identified by TLC and GC; format: biochemical, Marinobacter aquaeolei VT8; conditions: 200 μM substrate, NADPH
Description: Initial activity assays were conducted using thin layer chromatography (TLC) and a gas chromatography (GC) assay similar to that described previously (29). To test activity, 0.3 mg of protein was added to a reaction vessel along with 200 μM palmitoleyl-CoA and 800 μM NADPH, NADH, NADP^+, NAD^+ in reaction buffer containing 20 mM Tris-HCl pH 7.0 and 50 mM NaCl. Reactions were allowed to proceed for 1 hr before quenching by the addition of 2 mL of hexane. The hexane water mixture was vortexed vigorously for 30 seconds before centrifuging to separate phases. The hexane phase was removed to a clean container and the solvent was removed under a stream of argon. […] The TLC plate was developed in a 2:15:90 volumetric ratio of glacial acetic acid:ethyl ether:hexane. After development, visualization was performed in a sealed jar with iodine crystals for 10 min. The TLC results were verified by GC analysis of the sample prepared in the same way and compared to retention times of known standards.

[2] = molecular target: T1, fatty acyl-CoA reductase (FACoAR) from M. aquaeolei VT8 (Marinobacter nauticus (Marinobacter aquaeolei), UniProt A1U3L3); experiment: Continuous spectrophotometric DTNB assay (release of free CoA); format: biochemical; conditions: for Rate of Reaction (nmol NTB^2− min^−1 mg protein^−1): 6 μM of the respective CoA as substrate; for % Specific Activity of Palmitoyl-CoA: percent of the specific activity of palmitoyl-CoA, 6 μM substrate
T1 sequence (A1U3L3 1-661): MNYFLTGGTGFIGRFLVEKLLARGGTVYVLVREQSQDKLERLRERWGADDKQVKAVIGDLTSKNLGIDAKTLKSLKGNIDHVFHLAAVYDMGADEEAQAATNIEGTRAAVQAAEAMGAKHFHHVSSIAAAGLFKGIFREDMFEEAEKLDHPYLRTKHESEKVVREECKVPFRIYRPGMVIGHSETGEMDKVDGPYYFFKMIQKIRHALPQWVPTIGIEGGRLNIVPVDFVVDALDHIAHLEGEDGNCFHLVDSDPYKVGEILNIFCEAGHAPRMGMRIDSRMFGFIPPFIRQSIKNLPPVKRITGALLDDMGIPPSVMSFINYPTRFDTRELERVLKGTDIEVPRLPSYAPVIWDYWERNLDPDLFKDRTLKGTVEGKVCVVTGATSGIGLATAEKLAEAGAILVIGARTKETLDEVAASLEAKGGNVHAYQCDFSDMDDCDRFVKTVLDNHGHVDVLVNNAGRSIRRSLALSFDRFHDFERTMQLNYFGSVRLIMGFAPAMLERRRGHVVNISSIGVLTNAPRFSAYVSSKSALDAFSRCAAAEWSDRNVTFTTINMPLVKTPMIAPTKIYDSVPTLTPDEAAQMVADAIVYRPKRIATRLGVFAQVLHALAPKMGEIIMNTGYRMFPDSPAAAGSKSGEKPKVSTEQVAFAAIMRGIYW
Description: Buffers and solutions were prepared as described above for NADPH assays. Each assay was conducted by adding 75 μL of the 2 mg/mL NADPH stock solution in buffer, 58 μg of protein, and 10 μL of a 10 mg/mL solution of DTNB in DMSO, varying concentrations of acyl-CoA and buffer to bring the volume to 1 mL. Reduction of acyl-CoA substrate was monitored by following the increase of the 2-nitro-5-thiobenzoate (NTB^2−) dianion concentration at 412 nm. […] These initial rates were used to calculate the apparent K, and Vmax values using the Igor Pro (Wavemetrics, Lake Oswego, Oreg.) software package fitting the initial rates to the Hill equation (Equation 1) where v is the initial velocity, Vmax is the maximum calculated velocity, [S]^n is the concentration of substrate and n is the Hill coefficient, K0.5^n is the approximation of Km or the approximate substrate concentration at which half of Vmax is obtained at a specific value of the Hill coefficient n. In the case of enzyme inhibition, a modified version of the Hill equation allowing for cooperative inhibition (Equation 2) where all of the coefficients are defined as for the Hill equation and the additional [i]^n is the concentration of inhibitor and n is the Hill coefficient. The Ki^n is the approximate concentration of inhibitor it takes to double the K0.5 at a specific value of the Hill coefficient n.

[3] = molecular target: T1, fatty acyl-CoA reductase (FACoAR) from M. aquaeolei VT8; experiment: Continuous spectrophotometric NADPH assay (decrease of NADPH at 340 nm); format: biochemical; conditions: FIG. 5, NADPH assay, acyl-CoA substrate
Description: All assays were conducted in a total volume of 1 mL. A buffer containing 50 mM NaCl, 20 mM Tris-HCl pH 7.0, and 0.5 mg/mL BSA was prepared along with a 1 mM stock of aldehyde dissolved in dimethyl sulfoxide (DMSO) or a 0.1 mM stock of the acyl-CoA, and […] NADPH. All components including protein were degassed in sealed vials and placed under an argon atmosphere. NADPH was degassed as the solid prior to the addition of degassed buffer. Each assay was conducted by adding 75 μL of the NADPH stock, 58 μg protein for acyl-CoA assays or 15 μg protein for aldehyde assays, varying concentrations of aldehyde or acyl-CoA and buffer to bring the final volume to 1 mL. Each sample was continuously monitored for the decrease of NADPH at 340 nm on a Varian 50 Bio UV-visible spectrophotometer (Walnut Creek, Calif.). Initial rates were calculated in Excel using the linear initial rates of reaction obtained from the spectrophotometric assays by obtaining the slope from the best. In line and calculating nmol of NADPH oxidized per second. (Microsoft, Redmond, Wash.). These initial rates were used to calculate Km and Vmax values using the Igor Pro software package (Wavemetrics, Lake Oswego, Oreg.) fitting the initial rates to the Hill equation (31). NADPH specific activity assays were conducted identically as described above using a fixed 60 μM concentration of the various aldehyde substrates or 6 μM of the various acyl-CoA substrates.

[4] = molecular target: T1, fatty acyl-CoA reductase (FACoAR) from M. aquaeolei VT8; experiment: Palmitoyl CoA inhibition of fatty aldehyde (cis-11-hexadecenal) reduction; format: biochemical; conditions: competitive inhibition of cis-11-hexadecenal reduction; 0, 1, 2, 4 μM inhibitor; fit to equation 2; read-out: apparent Ki
Description: The (◯) denote assays performed with 0 μM palmitoyl CoA, ([…]) denote assays performed with 1 palmitoyl CoA, (□) denote assays performed with 2 μM palmitoyl CoA, and (Δ) denote assays performed with 4 μM palmitoyl CoA. Specific activities are plotted in units of nmol NADP^+ min^−1 mg protein^−1. All assays were conducted in triplicate and are shown with error bars indicating SEM fit to equation 1 in the materials and methods section. The apparent Ki was determined by fitting all four data sets to equation 2 in the materials and methods.
All assays were conducted in a total volume of 1 mL. A buffer containing 50 mM NaCl, 20 mM Tris-HCl pH 7.0, and 0.5 mg/mL BSA was prepared along with a 1 mM stock of aldehyde dissolved in dimethyl sulfoxide (DMSO) or a 0.1 mM stock of the acyl-CoA, and 2.0 trig/mL NADPH. […] Each sample was continuously monitored for the decrease of NADPH at 340 nm on a Varian 50 Bio UV-visible spectrophotometer (Walnut Creek, Calif.). Initial rates were calculated in Excel using the linear initial rates of reaction obtained from the spectrophotometric assays by obtaining the slope from the best. […]
Buffers and solutions were prepared as described above for NADPH assays. […] Reduction of acyl-CoA substrate was monitored by following the increase of the 2-nitro-5-thiobenzoate (NTB^2−) dianion concentration at 412 nm. […]

Compound | detectable product of reduction [1] | Rate of Reaction (nmol NTB^2− min^−1 mg protein^−1) [2] | % Specific Activity of Palmitoyl-CoA [2] [%] | n (Hill coefficient) [3] | Vmax ([3]; Hill fit) | Ki [4] [nM] | Vmax when CoA release was monitored [2] [nmol/min/mg] | maximal specific activity (CoA release) [2] | n (Hill coefficient) ([2]; FIG. 5, DTNB assay) | Vmax ([2]; FIG. 5, DTNB assay, release of free CoA, Hill fit, substrate)
CCCCCC/C=C\CCCCCCCC(=O)SCCNC(=O)CCNC(=O)[C@H](O)C(C)(C)COP(=O)(O)OP(=O)(O)OC[C@H]1O[C@@H](n2cnc3c(N)ncnc32)[C@H](O)[C@@H]1OP(=O)(O)O [Palmitoleyl-CoA] | palmitoleyl alcohol | 53.7 ± 1.1 nmol NTB^2− min^−1 mg protein^−1 | 93 | – | – | – | – | – | – | –
CCCCCCCCCCCCCCCC(=O)SCCNC(=O)CCNC(=O)[C@H](O)C(C)(C)COP(=O)(O)OP(=O)(O)OC[C@H]1O[C@@H](n2cnc3c(N)ncnc32)[C@H](O)[C@@H]1OP(=O)(O)O [Palmitoyl-CoA] | – | 54.7 ± 4.7 nmol NTB^2− min^−1 mg protein^−1 | 100 | 2.6±0.3 | 197±8 nmol NADP^+ min^−1 mg of protein^−1 | 1900 ± 260 | ~180 | 115 nmol of NTB/min/mg protein | 2.8±0.7 | 115±7 nmol NTB^−2 min^−1 mg of protein^−1
